The subject of this assay is HCT116. The note with it: 72 h. Put shortly:
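IC50 and maximal efficacy were derived from four-parameter Hill curve fits. The underlying CellTiter-Glo luminescence was scaled so that vehicle equals 0% and positive control equals -100%, and was then pattern-corrected. HCT116 cells had been seeded in 1536-well plates at 250 per well.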

The results in this text go back to the supplement of paper PMC12137928.

SMILES strings stand for the structures. Counter-ions that a name gives are not always drawn.

On to `CCCCCCc1ccc(O)cc1O` [4-Hexylresorcinol], for which the IC50 cell viability is above 45.8 µM (ICRF193 0 nM) and above 45.8 µM (ICRF193 200 nM).
For `CNC(=C[N+](=O)[O-])NCCSCc1csc(CN(C)C)n1` [Nizatidine], the IC50 cell viability was above 45.8 µM (ICRF193 0 nM) and above 45.8 µM (ICRF193 200 nM).
In the case of `CN1CCN(C2=Nc3ccccc3Oc3ccc(Cl)cc32)CC1` [Loxapine succinate], the IC50 cell viability was above 45.8 µM (ICRF193 0 nM) and above 45.8 µM (ICRF193 200 nM).
`Clc1ccccc1CN1CCc2sccc2C1` [Ticlopidine hydrochloride]: the IC50 cell viability was above 45.8 µM (ICRF193 0 nM) and above 45.8 µM (ICRF193 200 nM).
For `C[C@]12C=CC(=O)C=C1[C@@H](F)C[C@@H]1[C@@H]2[C@@H](O)C[C@@]2(C)[C@H]1CC[C@]2(O)C(=O)CO` [Fluprednisolone], the IC50 cell viability by setting is: (ICRF193 0 nM) above 45.8 µM; (ICRF193 200 nM) above 45.8 µM.
For the molecule `COC(=O)N/N=C/c1c[n+]([O-])c2ccccc2[n+]1[O-]` [Carbadox], the IC50 cell viability by setting is: (ICRF193 0 nM) above 45.8 µM; (ICRF193 200 nM) above 45.8 µM.
For the molecule `O=C(O)/C=C/c1ccc(Cn2ccnc2)cc1` [Ozagrel hydrochloride], the IC50 cell viability runs as follows: (ICRF193 0 nM) above 45.8 µM; (ICRF193 200 nM) above 45.8 µM.
`S=C1SCN(Cc2ccccc2)CN1Cc1ccccc1` [Sulbentine] displayed an IC50 cell viability (ICRF193 0 nM) above 45.8 µM and an IC50 cell viability (ICRF193 200 nM) above 45.8 µM.
Take `CCN(CCCc1ccccc1)CCCc1ccccc1` [Alverine citrate]: the IC50 cell viability reads like this: (ICRF193 0 nM) above 45.8 µM; (ICRF193 200 nM) above 45.8 µM.
Take `CN1C(=O)OC(C)(C)C1=O` [Trimethadione]: the IC50 cell viability is above 45.8 µM (ICRF193 0 nM) and above 45.8 µM (ICRF193 200 nM).
Turning to `CC(=O)CCC1C(=O)N(c2ccccc2)N(c2ccccc2)C1=O` [Kebuzone], the IC50 cell viability reads like this: (ICRF193 0 nM) above 45.8 µM; (ICRF193 200 nM) above 45.8 µM.
Regarding `Cc1c(F)c(N2CCNC(C)C2)cc2c1c(=O)c(C(=O)O)cn2C1CC1` (stereo not drawn) [Grepafloxacin hydrochloride], the IC50 cell viability was above 45.8 µM (ICRF193 0 nM) and above 45.8 µM (ICRF193 200 nM).
Regarding `O=S(=O)(O)c1ccccc1` [Benzene sulfonic acid], the IC50 cell viability by setting is: (ICRF193 0 nM) above 45.8 µM; (ICRF193 200 nM) above 45.8 µM.
Take `Cc1noc(NS(=O)(=O)c2ccc(N)cc2)c1C` [Sulfisoxazole]: the IC50 cell viability was above 45.8 µM (ICRF193 0 nM) and above 45.8 µM (ICRF193 200 nM).
Regarding `N=C(N)NS(=O)(=O)c1ccc(N)cc1` [Sulfaguanidine], the IC50 cell viability runs as follows: (ICRF193 0 nM) above 45.8 µM; (ICRF193 200 nM) above 45.8 µM.
On to `Nc1ccc(O)c(C(=O)O)c1` [5-Aminosalicylic acid], for which the IC50 cell viability (ICRF193 0 nM) was above 45.8 µM and the IC50 cell viability (ICRF193 200 nM) is above 45.8 µM.
As to `CCOCC(O)COc1ccc(NC(=O)CC[S+](C)C)cc1` (stereo not drawn) [Suplatast tosylate], the IC50 cell viability by setting is: (ICRF193 0 nM) above 45.8 µM; (ICRF193 200 nM) above 45.8 µM.
Turning to `NC(=O)NC1N=C([O][Al])NC1=O.O.O` (stereo not drawn) [Isalon], the IC50 cell viability is above 45.8 µM (ICRF193 0 nM) and above 45.8 µM (ICRF193 200 nM).
Regarding `CCC(=O)NCC[C@@H]1CCc2ccc3c(c21)CCO3` [Ramelteon], the IC50 cell viability is above 45.8 µM (ICRF193 0 nM) and above 45.8 µM (ICRF193 200 nM).
Regarding `CC(COc1ccc(Oc2ccccc2)cc1)Oc1ccccn1` (stereo not drawn) [Pyriproxyfen], the IC50 cell viability runs as follows: (ICRF193 0 nM) above 45.8 µM; (ICRF193 200 nM) above 45.8 µM.
For the molecule `O=C(O)COc1ccccc1` [Phenoxyacetic acid], the IC50 cell viability (ICRF193 0 nM) was above 45.8 µM and the IC50 cell viability (ICRF193 200 nM) is above 45.8 µM.
For `Cc1ncc(CNC(=O)N(CCCl)N=O)c(N)n1` [Nimustine], the IC50 cell viability is above 45.8 µM (ICRF193 0 nM) and above 45.8 µM (ICRF193 200 nM).
Take `CCN(CC)C(=O)N[C@@H]1C=C2c3cccc4[nH]cc(c34)C[C@@H]2N(C)C1` [(-)-(5S,8R)-Lisuride]: the IC50 cell viability by setting is: (ICRF193 0 nM) above 45.8 µM; (ICRF193 200 nM) above 45.8 µM.
Take `COc1cccc(CCc2ccccc2OCC(CN(C)C)OC(=O)CCC(=O)O)c1` (stereo not drawn) [Sarpogrelate hydrochloride]: the IC50 cell viability is, setting by setting: (ICRF193 0 nM) above 45.8 µM; (ICRF193 200 nM) above 45.8 µM.
Turning to `C[C@@H]1C[C@H]2[C@@H]3CCC4=CC(=O)C=C[C@]4(C)[C@@]3(F)[C@@H](O)C[C@]2(C)[C@@]1(O)C(=O)COC(=O)c1ccncc1` [Dexamethasone isonicotinate], the IC50 cell viability reads like this: (ICRF193 0 nM) above 45.8 µM; (ICRF193 200 nM) above 45.8 µM.
For the molecule `CN1c2c([nH]c(N)nc2=O)NC[C@@H]1CNc1ccc(C(=O)N[C@@H](CCC(=O)O)C(=O)O)cc1` [Levomefolate calcium], the IC50 cell viability runs as follows: (ICRF193 0 nM) above 45.8 µM; (ICRF193 200 nM) above 45.8 µM.
Regarding `O=C1NS(=O)(=O)c2ccccc21` [Saccharin], the IC50 cell viability was above 45.8 µM (ICRF193 0 nM) and above 45.8 µM (ICRF193 200 nM).
In the case of `CCCCCOc1ccc(-c2ccc(-c3ccc(C(=O)N[C@H]4C[C@@H](O)[C@@H](O)NC(=O)[C@@H]5[C@@H](O)[C@@H](C)CN5C(=O)[C@H]([C@@H](C)O)NC(=O)[C@H]([C@H](O)[C@@H](O)c5ccc(O)cc5)NC(=O)[C@@H]5C[C@@H](O)CN5C(=O)[C@H]([C@@H](C)O)NC4=O)cc3)cc2)cc1` [Anidulafungin], the IC50 cell viability reads like this: (ICRF193 0 nM) above 45.8 µM; (ICRF193 200 nM) above 45.8 µM.
`C[C@]12CC[C@@H]3c4ccc(OC(=O)N(CCCl)CCCl)cc4CC[C@H]3[C@@H]1CC[C@@H]2O` [Estramustine]: the IC50 cell viability runs as follows: (ICRF193 0 nM) above 45.8 µM; (ICRF193 200 nM) above 45.8 µM.
For the molecule `CCCCCCCCCCCCCCCCCC(=O)OCC(O)CO` (racemic) [1-Stearoyl-rac-glycerol], the IC50 cell viability is, setting by setting: (ICRF193 0 nM) above 45.8 µM; (ICRF193 200 nM) above 45.8 µM.
In turn, `CC[C@H](C)C(=O)O[C@H]1C[C@H](O)C=C2C=C[C@H](C)[C@H](CC[C@@H](O)C[C@@H](O)CC(=O)O)[C@H]21` [Pravastatin] returned an IC50 cell viability (ICRF193 0 nM) above 45.8 µM and an IC50 cell viability (ICRF193 200 nM) above 45.8 µM.
On to `CCOP(=S)(OCC)Oc1ccc2c(C)c(Cl)c(=O)oc2c1` [Coumaphos], for which the IC50 cell viability was above 45.8 µM (ICRF193 0 nM) and above 45.8 µM (ICRF193 200 nM).
On to `CCOC(=O)[C@H](CCc1ccccc1)N[C@@H](C)C(=O)N1[C@H](C(=O)O)C[C@@H]2CCC[C@@H]21` [Ramipril], for which the IC50 cell viability is above 45.8 µM (ICRF193 0 nM) and above 45.8 µM (ICRF193 200 nM).
As to `Oc1cc(O)c(Cl)cn1` [Gimeracil], the IC50 cell viability reads like this: (ICRF193 0 nM) above 45.8 µM; (ICRF193 200 nM) above 45.8 µM.
Consider `c1ccc(CN(CC2=NCCN2)c2ccccc2)cc1` [Antazoline hydrochloride], for which the IC50 cell viability is, setting by setting: (ICRF193 0 nM) above 45.8 µM; (ICRF193 200 nM) above 45.8 µM.
For `COc1ccc(-c2ccc3cc(C(=O)O)ccc3c2)cc1C12CC3CC(CC(C3)C1)C2` [Adapalene], the IC50 cell viability runs as follows: (ICRF193 0 nM) above 45.8 µM; (ICRF193 200 nM) above 45.8 µM.
Turning to `CCN(CC)Cc1nccn1-c1ccc([N+](=O)[O-])cc1C(=O)c1ccccc1Cl` [Nizofenone], the IC50 cell viability by setting is: (ICRF193 0 nM) above 45.8 µM; (ICRF193 200 nM) above 45.8 µM.
Consider `CC(=O)OCC(=O)Nc1cc(C#N)cc(NC(=O)COC(C)=O)c1Cl` [Acreozast], for which the IC50 cell viability reads like this: (ICRF193 0 nM) above 45.8 µM; (ICRF193 200 nM) above 45.8 µM.
On to `N#CSCC(=O)O` [Thiocyanoacetic acid sodium salt], for which the IC50 cell viability is above 45.8 µM (ICRF193 0 nM) and above 45.8 µM (ICRF193 200 nM).
As to `CCCCC[C@H](O)C=C[C@@H]1[C@@H](C/C=C/CCCC(=O)O)[C@H](O)C[C@H]1O` [5-trans Prostaglandin F2?], the IC50 cell viability is above 45.8 µM (ICRF193 0 nM) and above 45.8 µM (ICRF193 200 nM).
Turning to `O=[N+]([O-])C(Br)(CO)CO` [2-Bromo-2-nitro-1,3-propanediol], the IC50 cell viability is above 45.8 µM (ICRF193 0 nM) and above 45.8 µM (ICRF193 200 nM).
As to `COc1cc2c(cc1OC)[C@H]1C[C@@H](OC(=O)[C@@H](N)C(C)C)[C@H](CC(C)C)CN1CC2` [Valbenazine], the IC50 cell viability was above 45.8 µM (ICRF193 0 nM) and above 45.8 µM (ICRF193 200 nM).
Consider `CCC(=O)Oc1ccc2c(c1)CC[C@@H]1[C@@H]2CC[C@@]2(C)[C@H]1C[C@@H](OC(=O)CC)[C@@H]2OC(=O)CC` [Estriol tripropionate], for which the IC50 cell viability (ICRF193 0 nM) was above 45.8 µM and the IC50 cell viability (ICRF193 200 nM) is above 45.8 µM.
In the case of `Nc1nc(=O)n([C@@H]2CS[C@H](CO)O2)cc1F` [Emtricitabine], the IC50 cell viability was above 45.8 µM (ICRF193 0 nM) and above 45.8 µM (ICRF193 200 nM).
Take `COc1cc2[nH]c(C)c(CCN3CCN(c4ccccc4)CC3)c2cc1OC` [Oxypertine hydrochloride]: the IC50 cell viability runs as follows: (ICRF193 0 nM) above 45.8 µM; (ICRF193 200 nM) above 45.8 µM.
In the case of `CCC(=O)[C@@]1(C)[C@H](C)C[C@H]2[C@@H]3CCC4=CC(=O)C=C[C@]4(C)[C@H]3[C@@H](O)C[C@@]21C` [Rimexolone], the IC50 cell viability was above 45.8 µM (ICRF193 0 nM) and above 45.8 µM (ICRF193 200 nM).
In the case of `C#CCN[C@@H]1CCc2ccccc21` [Rasagiline mesylate], the IC50 cell viability is, setting by setting: (ICRF193 0 nM) above 45.8 µM; (ICRF193 200 nM) above 45.8 µM.
Take `COP(=O)(OC)OC=C(Cl)Cl` [Dichlorvos]: the IC50 cell viability was above 45.8 µM (ICRF193 0 nM) and above 45.8 µM (ICRF193 200 nM).
Take `C#C[C@]1(O)CC[C@H]2[C@@H]3[C@H](C)CC4=C(CCC(=O)C4)[C@H]3CC[C@@]21C` [Tibolone]: the IC50 cell viability is above 45.8 µM (ICRF193 0 nM) and above 45.8 µM (ICRF193 200 nM).
As for `C[C@H](CCC(=O)O)[C@H]1CC[C@H]2[C@@H]3[C@@H](O)C[C@@H]4C[C@H](O)CC[C@]4(C)[C@H]3CC[C@]12C` [Ursodiol], the IC50 cell viability is above 45.8 µM (ICRF193 0 nM) and above 45.8 µM (ICRF193 200 nM).
As to `c1ccc2c(c1)Nc1ccccc1S2` [Phenothiazine], the IC50 cell viability is above 45.8 µM (ICRF193 0 nM) and above 45.8 µM (ICRF193 200 nM).
`Cc1nc(=O)c2cc(CN(C)c3ccc(C(=O)N[C@@H](CCC(=O)O)C(=O)O)s3)ccc2[nH]1` [Raltitrexed]: the IC50 cell viability is, setting by setting: (ICRF193 0 nM) above 45.8 µM; (ICRF193 200 nM) above 45.8 µM.
For `CCCCCCCCCCCCCCCC(=O)OC(C)C` [Hexadecanoic acid, 1-methylethyl ester], the IC50 cell viability was above 45.8 µM (ICRF193 0 nM) and above 45.8 µM (ICRF193 200 nM).
`CN(Cc1cc(Br)cc(Br)c1N)C1CCCCC1` [Bromhexine hydrochloride] registered an IC50 cell viability (ICRF193 0 nM) above 45.8 µM and an IC50 cell viability (ICRF193 200 nM) above 45.8 µM.
